{"source": "ChEMBL document CHEMBL4411300", "about": "(Eur J Med Chem, 2019)", "key": {"[1]": {"test": "Nephrotoxicity in Balb/c mouse infected with Trypanosoma cruzi MHOM/Pe/2011/Arequipa DTU 5 trypomastigotes assessed as serum uric acid level at 20 mg/kg, po once daily for 5 consecutive days starting from day 75 post infection measured on day 127 post infection (reference value: 4.8 mg/dl)", "assay_type": "toxicity, organism-based", "conditions": "in vivo"}, "Trypanosoma cruzi [2]": {"system": "Trypanosoma cruzi", "test": "Inhibition of Trypanosoma cruzi MHOM/Pe/2011/Arequipa DTU 5 epimastigotes Fe-SOD at 100 uM by UV-Visible spectrophotometric method relative to control"}, "[3]": {"test": "Cardiotoxicity in Balb/c mouse infected with Trypanosoma cruzi MHOM/Pe/2011/Arequipa DTU 5 trypomastigotes assessed as change in serum LDH level at 20 mg/kg, po once daily for 5 consecutive days starting from day 75 post infection measured on day 127 post infection (reference value: 6679 U/L)", "assay_type": "toxicity, organism-based", "conditions": "in vivo"}, "[4]": {"test": "(§1) Hepatotoxicity in Balb/c mouse infected with Trypanosoma cruzi MHOM/Pe/2011/Arequipa DTU 5 trypomastigotes assessed as increase in ratio of serum ALT to GPT level at 20 mg/kg, po once daily for 5 consecutive days starting from day 10 post infection measured on day 127 post infection by biochemical analysis relative to control", "assay_type": "toxicity, organism-based", "conditions": "in vivo"}, "Trypanosoma cruzi [5]": {"system": "Trypanosoma cruzi", "test": "Inhibition of Trypanosoma cruzi MHOM/Pe/2011/Arequipa DTU 5 epimastigotes Fe-SOD at 50 uM by UV-Visible spectrophotometric method relative to control"}, "Trypanosoma cruzi [6]": {"system": "Trypanosoma cruzi", "test": "(§2) Antitrypanosomal activity against Trypanosoma cruzi MHOM/Pe/2011/Arequipa DTU 5 trypomastigotes infected in Balb/c mouse assessed as reduction in parasitaemia level at 20 mg/kg, po once daily for 5 consecutive days starting from day 10 post infection measured every 2 to 3 days up to day 50 post infection starting from day 7 post infection by Neubauer chamber method", "assay_type": "functional, organism-based"}, "[7]": {"test": "(§3) Hepatotoxicity in Balb/c mouse infected with Trypanosoma cruzi MHOM/Pe/2011/Arequipa DTU 5 trypomastigotes assessed as decrease in total bilirubin level at 20 mg/kg, po once daily for 5 consecutive days starting from day 75 post infection measured on day 127 post infection relative to control", "assay_type": "toxicity, organism-based", "set-up": "scale not given: the % may be the effect or the level left", "conditions": "in vivo"}, "[8]": {"test": "Nephrotoxicity in Balb/c mouse infected with Trypanosoma cruzi MHOM/Pe/2011/Arequipa DTU 5 trypomastigotes assessed as decrease in serum urea level at 20 mg/kg, po once daily for 5 consecutive days starting from day 10 post infection measured on day 127 post infection relative to control", "assay_type": "toxicity, organism-based", "set-up": "scale not given: the % may be the effect or the level left", "conditions": "in vivo"}, "[9]": {"test": "as §1, with “AST” for “ALT”, “GOT” for “GPT”, “75” for “10”, “81” for “127”", "assay_type": "toxicity, organism-based", "conditions": "in vivo"}, "[10]": {"test": "as §1, with “75” for “10”, “81” for “127”, “infection” for “infection by biochemical analysis”", "assay_type": "toxicity, organism-based", "conditions": "in vivo"}, "Trypanosoma cruzi [11]": {"system": "Trypanosoma cruzi", "test": "(§4) Antitrypanosomal activity against Trypanosoma cruzi MHOM/Pe/2011/Arequipa DTU 5 trypomastigotes infected in Balb/c mouse assessed as parasite-free muscle at 20 mg/kg, po pretreated once daily for 5 consecutive days starting from day 75 post infection followed by cyclophosphamide-induced immunosuppression on day 100 post infection every 4 days for a maximum of 3 doses measured on day 127 post infection by PCR method", "assay_type": "functional, organism-based"}, "Trypanosoma cruzi [12]": {"system": "Trypanosoma cruzi", "test": "as §4, with “spleen” for “muscle”", "assay_type": "functional, organism-based"}, "Trypanosoma cruzi [13]": {"system": "Trypanosoma cruzi", "test": "as §2, with “on” for “every 2 to 3 days up to”, “40” for “50 post infection starting from day 7”", "assay_type": "functional, organism-based"}, "Trypanosoma cruzi [14]": {"system": "Trypanosoma cruzi", "test": "as §4, with “brain” for “muscle”", "assay_type": "functional, organism-based"}, "Trypanosoma cruzi [15]": {"system": "Trypanosoma cruzi", "test": "as §4, with “heart” for “muscle”", "assay_type": "functional, organism-based"}, "[16]": {"test": "(§5) Cardiotoxicity in Balb/c mouse infected with Trypanosoma cruzi MHOM/Pe/2011/Arequipa DTU 5 trypomastigotes assessed as decrease in serum LDH level at 20 mg/kg, po once daily for 5 consecutive days starting from day 10 post infection measured on day 16 post infection by biochemical analysis relative to control", "assay_type": "toxicity, organism-based", "set-up": "scale not given: the % may be the effect or the level left", "conditions": "in vivo"}, "[17]": {"test": "(§6) Hepatotoxicity in Balb/c mouse infected with Trypanosoma cruzi MHOM/Pe/2011/Arequipa DTU 5 trypomastigotes assessed as change in total bilirubin level at 20 mg/kg, po once daily for 5 consecutive days starting from day 75 post infection measured on day 81 post infection (reference value: 0.25 mg/dl)", "assay_type": "toxicity, organism-based", "conditions": "in vivo"}, "[18]": {"test": "as §6, with “alkaline phosphatase” for “total bilirubin”, “167 U/L)” for “0.25 mg/dl)”", "assay_type": "toxicity, organism-based", "conditions": "in vivo"}, "[19]": {"test": "as §3, with “ratio of serum AST to GOT” for “total bilirubin”", "assay_type": "toxicity, organism-based", "set-up": "scale not given: the % may be the effect or the level left", "conditions": "in vivo"}, "[20]": {"test": "as §5, with “Hepatotoxicity” for “Cardiotoxicity”, “alkaline phosphatase” for “serum LDH”, “127” for “16”", "assay_type": "toxicity, organism-based", "set-up": "scale not given: the % may be the effect or the level left", "conditions": "in vivo"}, "Trypanosoma cruzi [21]": {"system": "Trypanosoma cruzi", "test": "as §4, with “stomach” for “muscle”", "assay_type": "functional, organism-based"}}, "note": "Active and inactive are the calls of the source. The calls are words filed in the database; no cut-off is given here.", "data": [{"compound": "Cl.Cl.Cl.Cl.Cl.Cl.c1ccc2nc(CNCCN(CCNCc3ccc4ccccc4n3)CCNCc3ccc4ccccc4n3)ccc2c1", "values": [{"measurement": "Activity", "setting": "[1]", "value": 4.8, "unit": "mg/dL"}, {"measurement": "inhibition", "setting": "Trypanosoma cruzi [2]", "value": 100, "unit": "%"}, {"measurement": "Activity", "setting": "[3]", "value": 6679, "unit": "U/L"}, {"measurement": "Activity", "setting": "[4]", "value": "<= 30%"}, {"measurement": "inhibition", "setting": "Trypanosoma cruzi [5]", "value": 82, "unit": "%"}, {"measurement": "Activity", "setting": "Trypanosoma cruzi [6]", "value": "inactive"}, {"measurement": "Activity", "setting": "[7]", "value": "<= 10%"}]}, {"compound": "O=C(Cn1ccnc1[N+](=O)[O-])NCc1ccccc1", "note": "[BENZNIDAZOLE]", "values": [{"measurement": "Activity", "setting": "[8]", "value": "<= 10%"}, {"measurement": "Activity", "setting": "[9]", "value": "<= 20%"}, {"measurement": "Activity", "setting": "[10]", "value": "<= 20%"}]}, {"compound": "Cl.Cl.Cl.NCCN(CCN)CCNCc1ccc2c(c1)Cc1ccccc1-2", "values": [{"measurement": "Activity", "setting": "Trypanosoma cruzi [11]", "value": "Active"}, {"measurement": "Activity", "setting": "Trypanosoma cruzi [12]", "value": "Active"}, {"measurement": "Activity", "setting": "Trypanosoma cruzi [13]", "value": "Active"}, {"measurement": "Activity", "setting": "Trypanosoma cruzi [14]", "value": "Active"}, {"measurement": "Activity", "setting": "Trypanosoma cruzi [15]", "value": "Active"}, {"measurement": "Activity", "setting": "[16]", "value": "<= 10%"}, {"measurement": "Activity", "setting": "[17]", "value": 0.25, "unit": "mg/dL"}, {"measurement": "Activity", "setting": "[18]", "value": 167, "unit": "U/L"}, {"measurement": "Activity", "setting": "[19]", "value": "<= 10%"}, {"measurement": "Activity", "setting": "[20]", "value": "<= 10%"}, {"measurement": "Activity", "setting": "Trypanosoma cruzi [21]", "value": "Active"}]}]}
